Key:
[1] = biological target: T1, hOCT1 (Homo sapiens, UniProt O15245); experiment: Inhibition of ASP+ uptake in hOCT1-HEK293 cells (apparent affinity); format: cell-based; parameters: expressed in transfected cells; host or cells: HEK293; conditions: hOCT1-HEK293, ASP+ 1 µM
T1 sequence (O15245 1-554): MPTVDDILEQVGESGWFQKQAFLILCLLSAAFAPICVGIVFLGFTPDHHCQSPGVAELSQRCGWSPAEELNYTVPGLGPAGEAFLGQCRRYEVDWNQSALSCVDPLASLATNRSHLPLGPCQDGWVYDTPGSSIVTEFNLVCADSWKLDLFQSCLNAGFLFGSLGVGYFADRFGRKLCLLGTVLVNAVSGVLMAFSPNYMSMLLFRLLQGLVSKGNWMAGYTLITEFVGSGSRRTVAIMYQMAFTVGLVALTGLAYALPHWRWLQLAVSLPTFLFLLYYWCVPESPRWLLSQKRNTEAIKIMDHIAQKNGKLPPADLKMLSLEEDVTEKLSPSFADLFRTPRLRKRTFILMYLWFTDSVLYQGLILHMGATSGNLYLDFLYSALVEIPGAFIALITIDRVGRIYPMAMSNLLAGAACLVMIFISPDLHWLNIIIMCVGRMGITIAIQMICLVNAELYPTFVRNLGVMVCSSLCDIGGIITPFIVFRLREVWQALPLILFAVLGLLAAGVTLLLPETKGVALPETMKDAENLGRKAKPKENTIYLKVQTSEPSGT

[2] = biological target: T2, hOCT2 (Homo sapiens, UniProt O15244); experiment: Saracatinib uptake in hOCT2-overexpressing HEK293 cells (HPLC-UV); conditions: hOCT2-HEK293, 10 µM saracatinib, 10 min, difference of accumulation at 4 °C and 37 °C
T2 sequence (O15244 1-555): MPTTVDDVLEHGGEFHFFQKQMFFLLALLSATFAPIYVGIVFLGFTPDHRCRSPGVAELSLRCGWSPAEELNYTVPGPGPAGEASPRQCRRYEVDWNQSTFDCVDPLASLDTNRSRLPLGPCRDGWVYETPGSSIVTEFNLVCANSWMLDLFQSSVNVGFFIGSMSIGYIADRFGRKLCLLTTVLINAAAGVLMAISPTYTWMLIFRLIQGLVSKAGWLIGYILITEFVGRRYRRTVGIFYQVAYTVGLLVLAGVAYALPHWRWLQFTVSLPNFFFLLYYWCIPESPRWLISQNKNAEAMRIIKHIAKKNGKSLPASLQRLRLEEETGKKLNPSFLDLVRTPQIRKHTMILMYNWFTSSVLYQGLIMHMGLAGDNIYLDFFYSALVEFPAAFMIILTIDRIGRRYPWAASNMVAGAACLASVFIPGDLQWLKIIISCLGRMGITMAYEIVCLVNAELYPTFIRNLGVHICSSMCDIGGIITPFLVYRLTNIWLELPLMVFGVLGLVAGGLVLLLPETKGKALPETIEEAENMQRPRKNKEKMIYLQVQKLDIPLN

[3] = tested on: RASF; experiment: PDGF-induced proliferation of cultured RASF (cell counting); format: cell-based, human; conditions: 18 h, PDGF 10 ng/ml
Protocol: Data are shown as mean ± SEM. […] Cells were grown at standard conditions. […] Cell number was evaluated with a […] cell counter (Roche Innovatis, Reutlingen, Germany).

[4] = biological target: T3, hMATE1 (Homo sapiens, UniProt Q96FL8); experiment: Saracatinib uptake in hMATE1-expressing HEK293 cells (HPLC-UV); conditions: hMATE1-HEK293, 10 µM saracatinib, 10 min; not significantly different from WT
T3 sequence (Q96FL8 1-570): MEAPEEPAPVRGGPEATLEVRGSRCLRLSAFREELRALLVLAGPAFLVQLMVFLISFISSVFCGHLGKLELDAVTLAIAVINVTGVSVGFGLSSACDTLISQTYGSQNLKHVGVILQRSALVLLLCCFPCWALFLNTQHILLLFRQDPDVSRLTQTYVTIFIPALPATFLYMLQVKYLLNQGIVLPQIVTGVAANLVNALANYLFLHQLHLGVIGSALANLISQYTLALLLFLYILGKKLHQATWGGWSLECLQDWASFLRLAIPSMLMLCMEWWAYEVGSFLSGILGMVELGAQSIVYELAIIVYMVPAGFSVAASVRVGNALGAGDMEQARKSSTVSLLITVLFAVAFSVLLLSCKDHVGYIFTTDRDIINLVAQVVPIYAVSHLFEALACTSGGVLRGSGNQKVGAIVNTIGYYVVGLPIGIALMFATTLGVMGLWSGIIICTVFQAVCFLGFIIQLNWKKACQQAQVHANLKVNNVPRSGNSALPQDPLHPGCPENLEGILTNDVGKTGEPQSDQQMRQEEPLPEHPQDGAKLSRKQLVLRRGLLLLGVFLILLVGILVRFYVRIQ

[5] = biological target: T1, hOCT1; experiment: Saracatinib uptake in hOCT1-overexpressing HEK293 cells (HPLC-UV); conditions: hOCT1-HEK293, 10 µM saracatinib, 10 min, difference of accumulation at 4 °C and 37 °C
[6] = biological target: T4, hOCTN1 (Homo sapiens, UniProt Q9H015); experiment: Saracatinib uptake in RASF after hOCTN1 siRNA knockdown; format: in vitro ADME; parameters: expressed in transfected cells; host or cells: HEK293, expression induced with 1 mg/l doxycycline; conditions: RASF 24 h post-transfection with hOCTN1 siRNA
T4 sequence (Q9H015 1-551): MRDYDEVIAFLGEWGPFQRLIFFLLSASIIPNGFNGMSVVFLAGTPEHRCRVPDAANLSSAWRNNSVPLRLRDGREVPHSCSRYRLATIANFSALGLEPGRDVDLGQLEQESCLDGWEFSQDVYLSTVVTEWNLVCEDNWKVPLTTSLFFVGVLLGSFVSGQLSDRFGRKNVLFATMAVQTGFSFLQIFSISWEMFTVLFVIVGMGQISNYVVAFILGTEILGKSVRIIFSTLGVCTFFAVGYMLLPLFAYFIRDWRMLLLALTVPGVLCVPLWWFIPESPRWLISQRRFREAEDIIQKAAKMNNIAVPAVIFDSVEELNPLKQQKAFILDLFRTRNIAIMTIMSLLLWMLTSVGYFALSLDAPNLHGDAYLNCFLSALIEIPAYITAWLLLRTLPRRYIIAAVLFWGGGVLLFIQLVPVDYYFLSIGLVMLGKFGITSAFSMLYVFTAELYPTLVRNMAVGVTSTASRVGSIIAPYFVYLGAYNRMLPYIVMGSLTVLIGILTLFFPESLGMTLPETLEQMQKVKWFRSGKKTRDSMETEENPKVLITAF

IC50 [1]: 57 µM | saracatinib accumulation (specific uptake) [2]: 7.0 ± 0.5 nmol/mg protein | saracatinib accumulation (specific uptake) [4]: 2.3 ± 0.7 nmol/mg protein | saracatinib accumulation (specific uptake) [5]: 8.8 ± 0.9 nmol/mg protein | uptake of saracatinib [6]: 2.6 ± 0.8 nmol/mg protein | uptake of saracatinib, % remaining versus scramble siRNA [6]: 26%
Structure (SMILES): CN1CCN(CCOc2cc(OC3CCOCC3)c3c(Nc4c(Cl)ccc5c4OCO5)ncnc3c2)CC1 [saracatinib, N-(5-chloro-1,3-benzodioxol-4-yl)-7-[2-(4-methylpiperazin-1-yl)ethoxy]-5-(tetrahydro-2H-pyran-4-yloxy)quinazolin-4-amine]
inhibition of PDGF-induced cell proliferation ([3]; 0.1 µM saracatinib): Complete inhibition | inhibition of PDGF-induced cell proliferation ([3]; 0.001–1 µM saracatinib): potent and dose-dependent inhibition
